Data published in publication PMC5524692, “Establishing a yeast-based screening system for discovery of human GLUT5 inhibitors and activators” (Scientific Reports, 2017).
Residue numbers refer to the chain shown, from its start. Like-named read-outs stand apart in the source and are kept apart here.

How the values were obtained:
GLUT5 [1] = molecular target: T1, GLUT5 (Homo sapiens, UniProt P22732, S72Y); assay: inhibition of […]-fructose uptake in hxt0 yeast cells expressing GLUT5; format: cell-based
T1 construct: gene SLC2A5; GLUT5tr (truncated for the first seven amino acids at the N-terminus)
T1 sequence (P22732 8-501 S72Y): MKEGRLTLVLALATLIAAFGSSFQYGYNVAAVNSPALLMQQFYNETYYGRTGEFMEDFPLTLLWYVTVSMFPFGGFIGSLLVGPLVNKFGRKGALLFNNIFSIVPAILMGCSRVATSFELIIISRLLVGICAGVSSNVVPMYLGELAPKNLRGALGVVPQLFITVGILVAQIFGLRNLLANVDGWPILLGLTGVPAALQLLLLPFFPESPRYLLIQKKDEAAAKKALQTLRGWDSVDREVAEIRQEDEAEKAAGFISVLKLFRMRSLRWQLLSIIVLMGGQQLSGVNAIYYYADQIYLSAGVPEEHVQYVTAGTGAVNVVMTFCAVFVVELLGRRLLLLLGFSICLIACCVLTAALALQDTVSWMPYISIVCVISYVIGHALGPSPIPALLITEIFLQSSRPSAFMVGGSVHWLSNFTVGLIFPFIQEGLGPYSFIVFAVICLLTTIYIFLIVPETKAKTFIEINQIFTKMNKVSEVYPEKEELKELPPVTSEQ

GLUT5 [2] = molecular target: T2, GLUT5 (Homo sapiens, UniProt P22732, S76I); assay: as above; format: cell-based
T2 construct: gene SLC2A5; GLUT5tr (truncated for the first seven amino acids at the N-terminus)
T2 sequence (P22732 8-501 S76I): T1 sequence (P22732 8-501 S72Y) with Y65S, S69I

Compound | IC50 (GLUT5 [1]; read-out: IC50 of ECG) [µM] | IC50 (GLUT5 [2]; read-out: IC50 of ECG) [µM] | IC50 (GLUT5 [1]; read-out: IC50 of MSNBA) [µM] | IC50 (GLUT5 [2]; read-out: IC50 of MSNBA) [µM]
O=C(O[C@@H]1Cc2c(O)cc(O)cc2O[C@@H]1c1ccc(O)c(O)c1)c1cc(O)c(O)c(O)c1 [ECG, (−)-epicatechin-gallate] | 180 ± 11 | 140 ± 11 |  | 
CS(=O)(=O)c1ccc(Nc2ccc3c(c2)OCO3)c([N+](=O)[O-])c1 [MSNBA, N-[4-(methylsulfonyl)-2-nitrophenyl]-1,3-benzodioxol-5-amine] |  |  | 26.6 ± 6.7 | 6.3 ± 0.7
